In patent US20220119431A1, “SALT OF EGFR INHIBITOR, CRYSTAL FORM, AND PREPARATION METHOD THEREFOR” (priority 2019, published 2022):
Each block holds one molecule with its values, some of them ahead of it.

Key:
[1] = Stability test, influencing factors (illumination, high temperature, high humidity); type: physicochemical
Method: Illumination test chamber, model: SHH-100GD-2, conditions: 5000±500 lux (visible light) and 90 mw/cm^2 (ultraviolet).
Electric heating blast drying oven, model: GZX-9140MBE condition: 60° C.
Constant temperature and humidity chamber, model: SHH-250SD, condition: 25° C./75% RH.
(§1) Influencing factor experimental conditions (high temperature of 60° C., high humidity of 75% RH, illumination): an appropriate amount of crystalline form A of the compound of formula (IIA) was placed in a dry and clean open weighing bottle, then the bottle was placed into a dryer under different conditions, and then placed into a corresponding thermostat for observation. The bottle was taken out after being placed for 5 days, 10 days and 30 days, and related substances and contents thereof were measured. Accelerated and long-term experimental conditions (40° C./75% RH, 25° C./60% RH): an appropriate amount of crystalline form A of the compound of formula (IIA) was filled into a double-layer LDPE bags, each layer of LDPE bag was sealed by a binding buckle, then put into an aluminum foil bag for heat sealing, and then put into a corresponding thermostat to observe acceleration and long-term stability.

[2] = Stability test, accelerated conditions 40° C./75% RH (Test Example 3); type: physicochemical; conditions: 40° C. ± 2° C./75% RH ± 5% RH
Method: (§2) Constant temperature and humidity chamber, model: LDS-800Y, condition: 40° C./75% RH and 25° C./60% RH.
as §1

[3] = Stability test, long-term conditions 25° C./60% RH (Test Example 3); type: physicochemical; conditions: 25° C. ± 2° C./60% RH ± 5% RH
Method: as §2, §1

[4] = Stability test, accelerated test 40° C./75% RH (Test Example 4); type: physicochemical; conditions: 40° C. ± 2° C., 75% RH ± 5% RH
Text: The conditions and the method for the raw material stability test are mainly based on related requirements such as “Guidelines for the Stability Test of APIs and Preparations” (General Principles 9001 of the Four Parts of the Chinese Pharmacopoeia, 2015 Edition) and technical guidelines for stability study on chemical drugs (raw materials and preparations) issued by the National Medical Products Administration in February, 2015 (revised), and are specifically shown in Table 14.

[5] = tested on: Ba/F3 (Δ19 del/T790M/C797S); assay: In vivo efficacy in BALB/c nude mice with subcutaneous Ba/F3 (Δ19 del/T790M/C797S) xenograft (CDX); conditions: for tumor volume inhibition value (TGI): 13 consecutive days
Method: In vivo drug efficacy experiment was performed on xenograft (CDX) BALB/c nude mice subcutaneously implanted with Ba/F3 (Δ19 del/T790M/C797S) source. BALB/c nude mice (female, 6-8 weeks, weighing about 18-22 g) were bred in SPF-rated environments, and each cage was ventilated individually (5 mice per cage). All animals were free to obtain a standard certified commercial laboratory diet. 48 mice in total were purchased from Beijing Vital River Laboratory Animal Technology Co., Ltd for the study. Each mouse was implanted with cells subcutaneously in the right flank for tumor growth. The experiment was started when the mean tumor volume reached about 80-120 mm^3. The test compound was administered orally daily with the compound of formula (I) (5 mg/kg, 15 mg/kg, 45 mg/kg, respectively) administered for 13 consecutive days, and the data are shown in Table 5. Tumor volume was measured twice weekly with a two-dimensional caliper, and the volume was measured in mm^3 and calculated according to the following formula: V=0.5a×b^2, where a and b are the long and short diameters, respectively, of the tumor. Anti-tumor efficacy was determined by dividing the mean tumor increase volume of compound-treated animals by the mean tumor increase volume of untreated animals.

[6] = Plasma, tumor and lung exposure in the efficacy-study mice after last administration; type: in vivo, BALB/c nude mice; conditions: 15.0 mg/kg/day oral
Method: On day 14 after administration to the groups for the efficacy experiment, before the last administration and 2 h after the last administration, the plasma of the mice was collected by blood collection from the submandibular vein, and the plasma of the mice was collected at 1 h, 4 h, 8 h, and 24 h after the administration. About 100 μL of blood was collected each time, placed in an anticoagulation tube, and centrifuged at 8000 rpm for 7 min to collect blood plasma, and the blood plasma was preserved at −80° C. Tissues of mouse lung and tumor were collected at the same time 2 h after the administration and stored at −80° C.

[7] = tested on: lung cancer PC-9 cells; assay: In vivo efficacy in mice with subcutaneous lung cancer PC-9 xenograft; set-up: species or system mouse; conditions: 50 mg/kg (0-9 days), 25 mg/kg (10-21 days) oral once a day
Method: 1. Cell culture: lung cancer PC-9 cells were cultured in an RPMI 1640 medium containing 10% fetal bovine serum, 100 U/mL penicillin and 100 μg/mL streptomycin through in vitro monolayer culture in an incubator at 37° C./5% CO2. The cells were digested with trypsin-EDTA twice a week for passaging as per conventional practice. At a cell saturation of 80%-90% and a required number, the cells were collected and counted. The cell density was 5×10^6 cells. 2. Cell inoculation: 0.2 mL (containing 5×10^6) of a suspension of PC-9 cells (PBS:Matrigel=1:1) was subcutaneously inoculated in the right back of each mouse, and 64 mice were inoculated in total. On day 7 after inoculation, when mean tumor volume was measured to be 169 mm^3, grouping administration was performed using a randomized stratified grouping method based on tumor volume and mice body weight. PBS is phosphate buffered saline, and Matrigel is matrigel. 3. Administration: the dosage was 50 mg/kg for 0-9 days and 25 mg/kg for 10-21 days; the drug was orally administrated once a day for 3 weeks.
Tumor diameters were measured twice weekly using a vernier caliper. The tumor volume was calculated using the following formula: V=0.5a×b^2, where a and b represent the long diameter and short diameter of the tumor respectively.
The efficacy of compounds against tumor was evaluated by TGI (%).
Relative tumor volume (RTV) was calculated based on the results of tumor measurement. The formula is RTV=Vt/V0, where V0 represents the tumor volume measured at the time point of grouping and administration (i.e., Do), and Vt represents the tumor volume at a certain measurement for the corresponding mouse, the data of TRTV and CRTV should be measured on the same day.
TGI (%) reflects the tumor growth inhibition rate. TGI (%)=[(1−(average tumor volume at the end of administration in a treatment group−average tumor volume at the start of administration of the treatment group))/(average tumor volume at the end of treatment of the solvent control group−average tumor volume at the start of treatment of the solvent control group)]×100%.
Tumor weights will be measured at the end of the experiment and the TGI (%) was calculated.

[8] = tested on: L858R/T790M/C797S mutation; conditions: in combination with an EGFR monoclonal antibody drug such as Cetuximab; cited from earlier work
[9] = High humidity (25° C./75% RH), Day 5
[10] = High temperature (60° C.), Day 5
[11] = High temperature (60° C.), Day 10
[12] = High temperature (60° C.), Day 30
[13] = Light stability experiment, Day 5
[14] = Light stability experiment, Day 10
[15] = BALB/c nude, mouse, plasma, day 14

Content [1, 9]: 99.6%
Total impurities [1, 9]: 1.41%
Content [1, 10]: 99.1%
Total impurities [1, 10]: 1.59%
Content [1, 11]: 101.6%
Total impurities [1, 11]: 1.63%
Content [1, 12]: 99.4%
Total impurities [1, 12]: 1.71%
Content ([1]; Initial value): 97.3%
Total impurities ([1]; Initial value): 1.63%
Content [1, 13]: 97.1%
Total impurities [1, 13]: 1.99%
Content [1, 14]: 95.1%
Total impurities [1, 14]: 2.21%
Content ([2]; 0 day): 97.3%
Total impurities ([2]; 0 day): 1.63%
Content ([2]; 1 month): 99.1%
Total impurities ([2]; 1 month): 1.71%
Content ([2]; 2 months): 98.1%
Total impurities ([2]; 2 months): 1.50%
Content ([2]; 3 months): 98.6%
Total impurities ([2]; 3 months): 1.56%
Content ([2]; 6 months): 97.9%
Total impurities ([2]; 6 months): 1.61%
Content ([3]; 0 day): 97.3%
Total impurities ([3]; 0 day): 1.63%
Content ([3]; 3 months): 99%
Total impurities ([3]; 3 months): 1.61%
Content ([3]; 6 months): 98.2%
Total impurities ([3]; 6 months): 1.73%
Content ([3]; 9 months): 99.4%
Total impurities ([3]; 9 months): 1.83%
Content ([3]; 12 months): 97.7%
Total impurities ([3]; 12 months): 1.69%
Sum of impurities ([4]; month 0): 1.18%
Water ([4]; month 0): 3.0%
Sum of impurities ([4]; month 1): 1.10%
Water ([4]; month 1): 3.0%
Sum of impurities ([4]; month 2): 1.18%
Water ([4]; month 2): 3.5%
Sum of impurities ([4]; month 3): 1.30%
Water ([4]; month 3): 3.2%
Sum of impurities ([4]; month 6): 1.18%
Water ([4]; month 6): 2.8%
Compound: COc1cc(N2CCC(N3CCN(C)CC3)CC2)c(C)cc1Nc1ncc(Br)c(Nc2ccc3nccnc3c2P(C)(C)=O)n1

Lung concentration, 2 h ([6]; 2 h after last administration): 32533 nmol/kg
Tumor concentration, 2 h ([6]; 2 h after last administration): 16667 nmol/kg
concentration at 2 h ([6]; BALB/c nude, mouse, plasma, 2 h after last administration): 3.55 µM
AUC(0-t) [6, 15]: 57 µM·h
half-life [6, 15]: 10 h
Compound: COc1cc(N2CCC(N3CCN(C)CC3)CC2)c(C)cc1Nc1ncc(Br)c(Nc2ccc3nccnc3c2P(C)(C)=O)n1 [Compound of formula (I)]
Tumor volume ([5]; 5 mg/kg/day oral, Day 0): 84 mm^3
Tumor volume ([5]; 5 mg/kg/day oral, Day 2): 108 mm^3
Tumor volume ([5]; 5 mg/kg/day oral, Day 5): 212 mm^3
Tumor volume ([5]; 5 mg/kg/day oral, Day 8): 395 mm^3
Tumor volume ([5]; 5 mg/kg/day oral, Day 10): 505 mm^3
Tumor volume ([5]; 5 mg/kg/day oral, Day 12): 748 mm^3
Tumor volume ([5]; 5 mg/kg/day oral, Day 13): 881 mm^3
tumor volume inhibition value (TGI) ([5]; 15 mg/kg oral daily): 74.9%
Tumor volume ([5]; 15 mg/kg/day oral, Day 0): 84 mm^3
Tumor volume ([5]; 15 mg/kg/day oral, Day 2): 76 mm^3
Tumor volume ([5]; 15 mg/kg/day oral, Day 5): 107 mm^3
Tumor volume ([5]; 15 mg/kg/day oral, Day 8): 126 mm^3
Tumor volume ([5]; 15 mg/kg/day oral, Day 10): 176 mm^3
Tumor volume ([5]; 15 mg/kg/day oral, Day 12): 292 mm^3
Tumor volume ([5]; 15 mg/kg/day oral, Day 13): 326 mm^3
tumor volume inhibition value (TGI) ([5]; 45 mg/kg oral daily): 101.69%
Tumor volume ([5]; 45 mg/kg/day oral, Day 0): 84 mm^3
Tumor volume ([5]; 45 mg/kg/day oral, Day 2): 56 mm^3
Tumor volume ([5]; 45 mg/kg/day oral, Day 5): 32 mm^3
Tumor volume ([5]; 45 mg/kg/day oral, Day 8): 35 mm^3
Tumor volume ([5]; 45 mg/kg/day oral, Day 10): 42 mm^3
Tumor volume ([5]; 45 mg/kg/day oral, Day 12): 73 mm^3
Tumor volume ([5]; 45 mg/kg/day oral, Day 13): 68 mm^3
Tumor volume ([7]; Day 0): 185 mm^3
Tumor volume ([7]; Day 2): 198 mm^3
Tumor volume ([7]; Day 6): 92 mm^3
Tumor volume ([7]; Day 9): 75 mm^3
Tumor volume ([7]; Day 13): 40 mm^3
Tumor volume ([7]; Day 16): 45 mm^3
Tumor volume ([7]; Day 20): 76 mm^3
Tumor volume ([7]; Day 23): 111 mm^3
TGI ([7]; day 23): 100%

Compound: O=C(Nc1nccs1)C(c1cc(F)ccc1O)N1Cc2ccccc2C1=O (stereo not shown) [EAI045]
tumor inhibitory effect [8]: good tumor inhibitory effect
